From patent US20130310374A1, “Substituted Imidazoquinoline Derivatives” (PIRAMAL ENTERPRISES LIMITED`, priority 2010, published 2013)
Like-named read-outs stand apart in the source and are kept apart here.

Legend:
[1] = test system: LN229; test: Cytotoxicity propidium iodide assay, LN229; assay type: cell-based; conditions: LN229 (glioblastoma), 48 hours treatment; read-out: IC50 Values in μM, C5a
Experimental: (§1) The assay was designed as in the reference, Anticancer Drugs, 2002, 13, 1-8, the disclosure of which is incorporated herein by reference for the teaching of the assay.
(§2) Cells from cell lines (ATCC) as mentioned in the table given below were seeded at a density of 3000 cells/well in a white opaque 96-well plate. Following incubation at 37° C./5% CO2 for a period of 18-24 hours, the cells were treated with various concentrations (stock solution was prepared in DMSO and subsequent dilutions were made in media as per ATCC guidelines) of the compounds of the present invention for a period of 48 hours. At the end of treatment, the culture medium was discarded, the cells were washed with 1×PBS and 200 μL of […] propidium iodide was added to each well. The plates were frozen at 70° C. overnight. For analysis, the plates were warmed to RT, allowed to thaw and were read in PoleStar fluorimeter with the fluorescence setting. The percentage of viable cells in the non-treated set of wells was considered to be 100 and the percentage viability following treatment was calculated accordingly. IC50 values were calculated from graphs plotted using these percentages. IC50 values for certain compounds of present invention are depicted in Table 1 and % Inhibition of certain compounds of present invention are depicted in Table 2.

[2] = test system: K562; test: Cytotoxicity propidium iodide assay, K562; assay type: cell-based; conditions: K562 (CML), 48 hours treatment, read-out: IC50 Values in μM, C6a
Experimental: as §1, §2

[3] = test system: KU812/SR; test: Cytotoxicity propidium iodide assay, KU812/SR; assay type: cell-based; conditions: KU812/SR (CML), 48 hours treatment; read-out: IC50 Values in μM, C6c
Experimental: as §1, §2

[4] = test system: KCL22/SR; test: Cytotoxicity propidium iodide assay, KCL22/SR; assay type: cell-based; conditions: KCL22/SR (CML), 48 hours treatment; read-out: IC50 Values in μM, C6e
Experimental: as §1, §2

[5] = test system: LN18; test: Cytotoxicity propidium iodide assay, LN18; assay type: cell-based; conditions: LN18 (glioblastoma), 48 hours treatment; read-out: IC50 Values in μM, C5b
Experimental: as §1, §2

[6] = test system: PC3; test: Cytotoxicity propidium iodide assay, PC3; assay type: cell-based, human; conditions: Homo sapiens, PC-3; for IC50: PC3 (prostate), 48 hours treatment, read-out: IC50 Values in μM, C2a
Experimental: as §1, §2

[7] = test system: PI3K/mTOR pathway; test: Western blot analysis in A2780 ovarian cancer cell line; assay type: cell-based; conditions: A2780 cells treated for 1 hour; FIG. 1A-1E
Experimental: Protocol for Western Blot Analysis
A2780 ovarian cancer cell line (ATCC) were grown to approximately 70% confluence in 100-mm tissue culture dishes and then treated for 1 hour with […] compounds of Example 2, 3, 5, 16, 19, 55 and 59. Total protein was extracted using cell lysis buffer (NaCl […], NP40 0.67%, Tris-Cl, pH 7.5, 67 mM) containing protease inhibitors and phosphatase inhibitors (Beta-glycerol phosphate 40 mM, DTT 1 mM, NaF 0.4 mM, Sodium-Orthovanadate 0.4 mM) at 4° C. for 1 hour. Cell lysates were then centrifuged at 2×10^4 g for 10 minutes at 4° C., and the protein concentration of the supernatant was quantified using the Bradford's method (BioRad, USA). For SDS-PAGE, 50 μg protein was loaded in SDS-PAGE, transferred to a polyvinylidene difluoride membrane (Bio-Rad, USA) and blocked with 5 mL buffer [5% skim milk and 0.1% Tween] for 1 hour 30 minutes. Membrane were probed with primary antibody (all primary antibodies were from cell signaling with 1:1000 in TBST solution) of respective protein at 4° C. overnight. Peroxidase-labeled anti-rabbit or anti-mouse antibodies (Santacruze, USA) were used as the secondary antibody. Actin and respective whole protein levels were used as the control for protein loading. Protein antigens were detected using Chemiluminescent Substrate (Thermo scientific, USA) and exposed on Kodak station.

[8] = test system: A2780; test: Cytotoxicity propidium iodide assay, A2780; assay type: cell-based; conditions: Homo sapiens; for IC50: A2780 (ovarian), 48 hours treatment, read-out: IC50 Values in μM, C1a
Experimental: as §1, §2

[9] = test system: BT 549; test: Cytotoxicity propidium iodide assay, BT 549; assay type: cell-based; conditions: Homo sapiens; BT 549 (breast), 48 hours treatment; read-out: IC50 Values in μM, C3c
Experimental: as §1, §2

[10] = test system: PANC 1; test: Cytotoxicity propidium iodide assay, PANC 1; assay type: cell-based; conditions: Homo sapiens; PANC 1 (pancreatic), 48 hours treatment; read-out: IC50 Values in μM, C4a
Experimental: as §1, §2

[11] = test system: BxPC3; test: Cytotoxicity propidium iodide assay, BxPC3; assay type: cell-based; conditions: Homo sapiens, BXPC-3; BxPC3 (pancreatic), 48 hours treatment; read-out: IC50 Values in μM, C4c
Experimental: as §1, §2

[12] = test system: MDA MB 468; test: Cytotoxicity propidium iodide assay, MDA MB 468; assay type: cell-based; conditions: Homo sapiens; MDA MB 468 (breast), 48 hours treatment; read-out: IC50 Values in μM, C3b
Experimental: as §1, §2

[13] = test system: MDA MB 231; test: Cytotoxicity propidium iodide assay, MDA MB 231; assay type: cell-based; conditions: Homo sapiens; MDA MB 231 (breast), 48 hours treatment; read-out: IC50 Values in μM, C3a
Experimental: as §1
as §2, with “The plates were frozen at 70° C. overnight.” left out

[14] = test system: MCF7; test: Cytotoxicity propidium iodide assay, MCF7; assay type: cell-based; conditions: Homo sapiens; MCF7 (breast), 48 hours treatment; read-out: IC50 Values in μM, C3d
Experimental: as §1, §2

[15] = test system: AsPC 1; test: Cytotoxicity propidium iodide assay, AsPC 1; assay type: cell-based; conditions: Homo sapiens, ASPC1; AsPC 1 (pancreatic), 48 hours treatment; read-out: IC50 Values in μM, C4b
Experimental: as §1
as §2, with “The plates were frozen at 70° C. overnight.” left out

“1-(6-Chloro-2,4′-bipyridin-3-yl)-3-methyl-8-(pyridin-3-yl)-1H-imidazo[4,5-c]quinolin-2(3H)-one [Example 72]” gave an IC50 [1] of 0.44 µM, an IC50 [2] of 0.0144 µM and an IC50 [3] of 1.14 µM. It also gave an IC50 [4] of 0.23 µM and an IC50 [5] of 0.992 µM.

With `Cn1c(=O)n(-c2ccc(C(C)(C)C#N)nc2)c2c3cc(-c4ccc5ncccc5c4)ccc3ncc21` [Example 5, 2-Methyl-2-(5-(3-methyl-2-oxo-8-(quinolin-6-yl)-2,3-dihydro-1H-imidazo[4,5-c]quinolin-1-yl)pyridin-2-yl)propanenitrile] the IC50 [6] was 0.38 µM, the “Akt, S6 and 4EBP1 phosphorylation (Western blot)” value [7] was “inhibit Akt, S6 and 4EBP1 phosphorylation” and the IC50 [8] was 0.08 µM.

`CC(C)(C#N)c1ccc(-n2c(=O)n(CC#N)c3cnc4ccc(-c5cnc6ccccc6c5)cc4c32)cn1` [Example 17, 2-(5-(3-(Cyanomethyl)-2-oxo-8-(quinolin-3-yl)-2,3-dihydro-1H-imidazo[4,5-c]quinolin-1-yl)pyridin-2-yl)-2-methylpropanenitrile] was tested, and the IC50 [6] was 0.17 µM, the IC50 [9] was 0.37 µM and the IC50 [10] was 0.23 µM. It also gave an IC50 [11] of 0.085 µM, an IC50 [12] of 0.45 µM and an IC50 [8] of 0.065 µM. For the same compound, the IC50 [13] was 0.17 µM, the IC50 [14] was 0.25 µM and the IC50 [15] was 0.24 µM.

With `Cn1c(=O)n(-c2ccc(C#N)nc2)c2c3cc(-c4cccnc4)ccc3ncc21` [Example 49, 5-(3-Methyl-2-oxo-8-(pyridin-3-yl)-2,3-dihydro-1H-imidazo[4,5-c]quinolin-1-yl)picolinonitrile] the IC50 [6] was 0.017 µM, the IC50 [9] was 0.3 µM and the IC50 [10] was 0.035 µM. It also gave an IC50 [11] of 0.04 µM, an IC50 [12] of 0.065 µM and an IC50 [8] of 0.009 µM. It also gave an IC50 [13] of 0.016 µM, an IC50 [14] of 0.03 µM and an IC50 [15] of 0.025 µM.

`Cn1c(=O)n(-c2ccc(C(F)(F)F)nc2)c2c3cc(-c4cnc5ccccc5c4)ccc3ncc21` [Example 54, 3-Methyl-8-(quinolin-3-yl)-1-(6-(trifluoromethyl)pyridin-3-yl)-1H-imidazo[4,5-c]quinolin-2(3H)-one] gave an IC50 [6] of 0.55 µM, an IC50 [9] of 1 µM and an IC50 [10] of 0.95 µM. It also gave an IC50 [11] of 0.78 µM, an IC50 [12] of 1.2 µM and an IC50 [8] of 0.16 µM. The IC50 [13] was 0.55 µM, the IC50 [14] was 0.8 µM and the IC50 [15] was 0.55 µM.

`Cn1c(=O)n(-c2ccc(C(F)(F)F)nc2Cl)c2c3cc(-c4cnc(N)c(C(F)(F)F)c4)ccc3ncc21` [Example 59, 8-(6-Amino-5-(trifluoromethyl)pyridin-3-yl)-1-(2-chloro-6-(trifluoromethyl)pyridin-3-yl)-3-methyl-1H-imidazo[4,5-c]quinolin-2(3H)-one] was tested, and the IC50 [6] was 0.018 µM, the IC50 [9] was 0.04 µM and the IC50 [10] was 0.017 µM. The IC50 [11] was less than 0.01 µM, the “Akt, S6 and 4EBP1 phosphorylation (Western blot)” value [7] was “inhibit Akt, S6 and 4EBP1 phosphorylation” and the IC50 [12] was 0.07 µM. The IC50 [8] was less than 0.01 µM, the IC50 [13] was less than 0.01 µM and the IC50 [14] was 0.013 µM. It also gave an IC50 [15] of 0.042 µM.

Compound `Cn1c(=O)n(-c2ccc(Cl)nc2C(F)(F)F)c2c3cc(-c4cccnc4)ccc3ncc21` [Example 63, 1-(6-Chloro-2-(trifluoromethyl)pyridin-3-yl)-3-methyl-8-(pyridin-3-yl)-1H-imidazo[4,5-c]quinolin-2 (3H)-one] has an inhibition at 1 µM ([6]; PC3, 1 μM, 48 hours, read-out: % Inhibition at 1 μM, C2a) of 53%, an IC50 [9] of 5.6 µM and an IC50 ([2]; Homo sapiens) of 0.224 µM. For the same compound, the inhibition at 1 µM ([8]; A2780, 1 μM, 48 hours, read-out: % Inhibition at 1 μM, C1a) was 88% and the IC50 [14] was 4 µM.

For `Cn1c(=O)n(-c2ccc3ncccc3c2)c2c3cc(-c4cnc(N)c(C(F)(F)F)c4)ccc3ncc21` [Example 67, 8-(6-Amino-5-(trifluoromethyl)pyridin-3-yl)-3-methyl-1-(quinolin-6-yl)-1H-imidazo[4,5-c]quinolin-2 (3H)-one], the IC50 [6] was 0.015 µM, the IC50 [9] was 0.011 µM and the IC50 [10] was 0.025 µM. It also gave an IC50 [11] of 0.0085 µM, an IC50 [12] of 0.05 µM and an IC50 [8] of 0.006 µM. The IC50 [13] was 0.012 µM, the IC50 [14] was 0.02 µM and the IC50 [15] was 0.035 µM.

`Cn1c(=O)n(CCN2CCOCC2)c2c3cc(-c4cccnc4)ccc3ncc21` [Example 68, 3-Methyl-1-(2-morpholinoethyl)-8-(pyridin-3-yl)-1H-imidazo[4,5-c]quinolin-2(3H)-one] showed an IC50 [6] of 2.4 µM, an IC50 [9] greater than 10 µM and an IC50 [10] of 4.6 µM. For the same compound, the IC50 [11] was 2.4 µM, the IC50 [12] was 7 µM and the IC50 [8] was 1.4 µM. The IC50 [13] was 2.3 µM, the IC50 [14] was 3 µM and the IC50 [15] was 4.6 µM.
